Test [1] concerns the target T1, Acetylcholinesterase (Homo sapiens, UniProt P22303). The experiment in a line: Inhibition of AChE by Ellman's assay. A general note: DTNB colorimetry detects thiols as they appear.
Test [2] deals with T1, Acetylcholinesterase. The experiment in a line: Inhibition of AChE at 10 uM by Ellman's assay.

SMILES strings stand for the structures.

T1 sequence (P22303 whole entry): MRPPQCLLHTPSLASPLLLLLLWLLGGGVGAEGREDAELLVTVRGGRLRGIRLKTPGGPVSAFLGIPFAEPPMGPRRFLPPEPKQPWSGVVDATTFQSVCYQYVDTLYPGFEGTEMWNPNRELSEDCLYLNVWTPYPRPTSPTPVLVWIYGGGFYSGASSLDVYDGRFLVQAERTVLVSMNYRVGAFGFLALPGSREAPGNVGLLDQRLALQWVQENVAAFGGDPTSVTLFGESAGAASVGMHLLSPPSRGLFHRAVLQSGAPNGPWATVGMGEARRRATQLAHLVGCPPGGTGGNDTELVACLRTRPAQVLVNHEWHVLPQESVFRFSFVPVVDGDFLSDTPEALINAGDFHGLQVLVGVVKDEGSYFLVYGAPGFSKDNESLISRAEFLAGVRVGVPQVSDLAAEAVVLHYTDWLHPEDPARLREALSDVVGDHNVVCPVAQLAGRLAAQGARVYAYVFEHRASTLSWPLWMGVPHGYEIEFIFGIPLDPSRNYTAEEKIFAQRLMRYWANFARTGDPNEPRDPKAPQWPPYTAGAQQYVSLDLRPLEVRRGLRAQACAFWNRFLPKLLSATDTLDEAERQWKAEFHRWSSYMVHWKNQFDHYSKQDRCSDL

What is called Ki is the dissociation constant of the complex between target and ligand, obtained from inhibition or displacement. Read a high Ki as a looser hold on the target. As for `CC(C)(C)[Si](C)(C)O[C@H]1C=C2CCN3Cc4cc5c(cc4[C@H]([C@@H]1OC(=O)c1ccccc1)[C@@H]23)OCO5`, affinity in test [1] was put at a Ki of 390 nM.

With `O=C(O[C@H]1[C@H]2c3cc4c(cc3CN3CCC(=C[C@@H]1O)[C@H]23)OCO4)c1ccccc1`, the affinity in test [1] corresponds to a Ki of 540 nM. Still for that read-out and setting: then `CC(=O)O[C@H]1C=C2CCN3Cc4cc5c(cc4[C@H]([C@@H]1OC(=O)c1ccccc1)[C@@H]23)OCO5`, with 970 nM; and `CC(=O)O[C@H]1[C@H]2c3cc4c(cc3CN3CCC(=C[C@@H]1O)[C@H]23)OCO4`, with 430 nM. With `CC(=O)O[C@H]1[C@H]2c3cc4c(cc3CN3CCC(=C[C@@H]1OC(C)=O)[C@H]23)OCO4`, the inhibition constant Ki result in test [2] is “Not Active”. Still for that read-out and setting: the entry for `CO[C@H]1C=C[C@@]23c4cc5c(cc4CN(C[C@@H]2O)[C@H]3C1)OCO5` is “Not Active”. `CC(C)(C)[Si](C)(C)O[C@H]1C=C2CCN3Cc4cc5c(cc4[C@H]([C@@H]1O)[C@@H]23)OCO5`: in test [1], affinity was put at a Ki of 860 nM. The compound `CC(=O)O[C@H]1[C@H]2c3cc4c(cc3CN3CCC(=C[C@@H]1O[Si](C)(C)C(C)(C)C)[C@H]23)OCO4` yielded an inhibition constant (Ki) in test [1] of 340 nM. As for `O[C@H]1C=C[C@@]23CCN(Cc4cc5c(cc42)OCO5)[C@@H]3C1` [CRININE], in test [2], the Ki result is recorded as “Not Active”.

On to `COc1cc2c(cc1OC)[C@H]1[C@H]3C(=CC[C@H]1OC2=O)CCN3C` [HOMOLYCORINE], for which the Ki result in test [2] is listed as “Not Active”. On the same count and under the same terms, then `O[C@H]1[C@H]2c3cc4c(cc3CN3CCC(=C[C@@H]1O)[C@H]23)OCO4` [LYCORINE], with “Not Active”; and `CO[C@H]1C=C2[C@H]3CN(Cc4cc5c(cc43)OCO5)[C@H]2C[C@@H]1O` [MONTANINE], with “Not Active”; and `COc1cc2c(cc1O)[C@@H]1[C@H](O)[C@@H](O)C=C3CCN(C2)[C@H]31` [PSEUDOLYCORINE], with “Not Active”. Still for that read-out and setting: then `CO[C@@H]1C=C[C@@]23c4cc5c(cc4CO[C@]2(O)CN(C)[C@H]3C1)OCO5` [TAZETTINE], with “Not Active”.

(Values after ChEMBL document CHEMBL1221246, “Structure-activity studies on acetylcholinesterase inhibition in the lycorine series of Amaryllidaceae alkaloids” (Bioorg Med Chem Lett, 2010).)
